Reference: patent US12558344B2, “Composition for preventing or treating brain-nervous system diseases comprising rita or derivatives thereof” (priority 2019, dated 2026)

Experiments:
[1] = test system: adult hippocampal neural stem cells (HCN cells); test: Cell death assay (Hoechst 33342/PI) of stress hormone (CORT)-induced death of adult hippocampal neural stem cells; type: cell-based, rat; conditions: 50 nM RITA (3 h pre-treatment, then with 200 μM CORT), 48 hours, FIG. 1
Protocol: First, adult hippocampal neural stem cells (HCN cells; hereinafter, referred to as “HCN”) were isolated from an 8-week-old female Sprague-Dawley rat (SD rat). Afterward, the isolated hippocampal neural stem cells were incubated using a serum-free medium containing Dulbecco's modified Eagle's medium (DMEM)/F-12 to which N2 and basic fibroblast growth factor (bFGF; PeproTech) were added in a 37° C. incubator. The cells were subcultured every 3 or 4 days. The subcultured neural stem cells were put into a 96-well plate at 1.5×10^5 cells/ml, 50 nM RITA was treated together with 200 μM corticosterone (CORT), and cell death was confirmed after 48 hours. Before CORT treatment, 50 nM RITA was pre-treated for 3 hours and then treated again along with CORT. For cell death assay, the cells were stained with Hoechst 33342 (Invitrogen) and propidium iodide (PI; Sigma) and photographed by a fluorescence microscope (Axiovert 40 CFL; Carl Zeiss), and the percentage of cell death was calculated by the following cell death (%) equation. Cell death (%)=(the number of PI[red]−positive cells/the number of Hoechst [blue]−positive cells)×100

[2] = test system: hippocampal neural stem cells; test: Neural stem cell protection in chronic restraint stress (CRS) mouse, SOX2/Ki67 immunohistochemistry of hippocampus; type: in vivo; conditions: 10 mg/kg intraperitoneally for 10 days, CRS 7 days, FIG. 2
Protocol: An 8-week-old male C57BL/6 mouse was subjected to chronic restraint stress (CRS) using a restrainer from 10 AM to 4 PM daily for 7 days. RITA (10 mg/kg) was intraperitoneally injected using a 1-ml syringe at 9:30 AM for 10 days from 3 days before the stress experience. To confirm the number of hippocampal neural stem cells in the RITA-injected mouse, the control and the stress-experiencing mice were anesthetized by injecting the neuro-anesthetic Zoletil and the muscle anesthetic Rompun to isolate brain tissue. Afterward, the brain tissue was frozen with an optimal cutting temperature compound after fixing the brain with 4% paraformaldehyde (PFA). To perform immunohistochemistry, the frozen brain was cut in the coronal plane to a thickness of 40 μm, and then a neural stem cell indicator, SOX2, and a cell proliferation indicator, Ki67 protein, were labeled with Alexa488 or Alexa555 and stained. The number of fluorescence-expressing cells in the hippocampus of the stained brain was detected using a Confocal 780 microscope (Zeiss), and the result is shown in FIG. 2. As a control, oil, which is a medium in which RITA is dissolved, was injected.

[3] = test system: C57BL/6 mouse subjected to chronic restraint stress; test: Open field test, anxiety-related behavior in CRS mouse; type: in vivo; conditions: open field test 20 minutes, 10 mg/kg intraperitoneally, FIG. 3
Protocol: (§1) An 8-week-old male C57BL/6 mouse was subjected to chronic restraint stress (CRS) using a restrainer from 10 AM to 4 PM daily for 7 days. RITA (10 mg/kg) was intraperitoneally injected using a 1-ml syringe at 9:30 AM for 10 days from 3 days before the stress experience. Specifically, to measure anxiety-related behavior, an open field test was performed. The degree of anxiety was measured by observing a staying rate during a staying time in the middle in a square with a size of 40×40 cm^2 for 20 minutes. In addition, to measure spatial memory ability, a Y-Maze test was performed. The degree of spatial memory ability was measured by measuring the rate (arm alteration) entering each passage while freely moving in a Y-shaped maze space composed of three passages for 6 minutes.

[4] = test system: C57BL/6 mouse subjected to chronic restraint stress; test: Y-Maze test, spatial memory in CRS mouse; type: in vivo; conditions: Y-Maze test 6 minutes (arm alteration), 10 mg/kg intraperitoneally, FIG. 4
Protocol: as §1

OCc1ccc(-c2ccc(-c3ccc(CO)s3)o2)s1 [RITA, 2,5-bis[5-hydroxymethyl-2-thienyl] furan]
death of neural stem cells caused by a stress hormone [1]: inhibits the death of neural stem cells | number of cells expressing Ki67 (cell proliferation indicator) decreased by stress [2]: considerably increased compared to the control | number of cells expressing SOX2 (stem cell indicator) decreased by stress [2]: considerably increased compared to the control | anxiety disorder-related behavior caused by stress experience [3]: prevented | spatial memory disability caused by stress experience [4]: prevented
